Assay results published in patent publication US11498896B2 (The Broad Institute, Inc., priority 2014, dated 2022).

Assays:
human D2R/β-arrestin [1] = target: T1, human D2R/β-arrestin (Homo sapiens (Human), UniProt P14416); test: cell-based; conditions: β-arrestin Antagonist, CHO-K1 cells expressing human D2R/β-arrestin; antagonist mode, quinpirole 130 nM
human D2R/β-arrestin [2] = target: T1, human D2R/β-arrestin; test: cell-based; conditions: cAMP Antagonist, CHO-K1 cells expressing human D2R/β-arrestin; antagonist mode, 2.5 μM forskolin and 2.7 nM quinpirole
human D2R/β-arrestin [3] = target: T1, human D2R/β-arrestin; test: Gi/cAMP agonist assay (Lance Ultra cAMP, forskolin); assay type: cell-based; conditions: CHO-K1 cells expressing human D2R/β-arrestin; agonist mode, 2.5 μM forskolin
Protocol: Eu-cAMP tracer solution (10 μl, PerkinElmer, 360 μl of Tracer in 17.64 ml kit buffer) and ULight-anti-cAMP solution (10 μl, 120 μL antibody in 17.88 ml kit buffer) was then added to each well.

human D2R/β-arrestin [4] = target: T1, human D2R/β-arrestin; test: β-arrestin agonist assay (PathHunter); assay type: cell-based; conditions: CHO-K1 cells expressing human D2R/β-arrestin; agonist mode
Protocol: The detection reagent (9.6 μL, Buffer:Emerald II:Galactor-Star in a 19:5:1 ratio, i.e., 14.06 mL:3.7 mL:0.74 mL=18.5 mL) was then added to the agonist plates.

T1 sequence (P14416 whole entry): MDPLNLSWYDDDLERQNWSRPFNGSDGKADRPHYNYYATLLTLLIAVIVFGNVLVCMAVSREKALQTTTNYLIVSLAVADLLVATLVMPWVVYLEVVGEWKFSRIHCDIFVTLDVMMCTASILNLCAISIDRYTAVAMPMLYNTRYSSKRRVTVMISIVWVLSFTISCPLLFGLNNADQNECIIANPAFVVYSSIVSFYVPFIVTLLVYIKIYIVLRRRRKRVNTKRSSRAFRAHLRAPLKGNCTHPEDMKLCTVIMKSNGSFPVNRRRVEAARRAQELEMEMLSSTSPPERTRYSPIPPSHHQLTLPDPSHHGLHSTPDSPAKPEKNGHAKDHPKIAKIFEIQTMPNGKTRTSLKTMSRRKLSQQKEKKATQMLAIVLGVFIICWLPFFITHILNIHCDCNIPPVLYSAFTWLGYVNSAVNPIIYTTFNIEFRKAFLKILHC

Row | Compound | IC50 (human D2R/β-arrestin [1]) [µM] | IC50 (human D2R/β-arrestin [2]) [µM] | EC50 (human D2R/β-arrestin [3]) [µM] | EC50 (human D2R/β-arrestin [4]) [µM]
1 | CC1(Oc2cccc(Cl)c2)CCN(CCOc2ccccc2)C1 (stereo not drawn) [Example 42, 3-(3-chlorophenoxy)-3-methyl-1-(2-phenoxyethyl)pyrrolidine] | 1 to 10 | > 30 | < 0.1 | > 30
2 | CC1(Oc2ccc([N+](=O)[O-])cc2)CCN(CCOc2ccccc2)C1 (stereo not drawn) [Example 43, 3-Methyl-3-(4-nitrophenoxy)-1-(2-phenoxyethyl)pyrrolidine] | 1 to 10 | > 30 | > 30 | > 30
3 | CC1(Oc2ccc(N)cc2)CCN(CCOc2ccccc2)C1 (stereo not drawn) [Example 44, 4-((3-methyl-1-(2-phenoxyethyl)pyrrolidin-3-yl)oxy)aniline] | > 30 | > 30 | < 0.1 | 0.1 to 1
4 | CC1(Oc2ccccc2[N+](=O)[O-])CCN(CCOc2ccccc2)C1 (stereo not drawn) [Example 45, 3-methyl-3-(2-nitrophenoxy)-1-(2-phenoxyethyl)pyrrolidine] | 1 to 10 | > 30 | < 0.1 | > 30
5 | CC1(Oc2ccccc2Cl)CCN(CCOc2ccccc2)C1 (stereo not drawn) [Example 47, 3-(2-chlorophenoxy)-3-methyl-1-(2-phenoxyethyl)pyrrolidine] | 1 to 10 | > 30 | 0.1 to 1 | > 30
6 | CC1(Oc2ccc(Cl)cc2Cl)CCN(CCOc2ccccc2)C1 (stereo not drawn) [Example 48, 3-(2,4-dichlorophenoxy)-3-methyl-1-(2-phenoxyethyl)pyrrolidine] | 10 to 30 | > 30 | < 0.1 | > 30
7 | CC1(Oc2cccc(Cl)c2Cl)CCN(CCOc2ccccc2)C1 (stereo not drawn) [Example 49, 3-(2,3-dichlorophenoxy)-3-methyl-1-(2-phenoxyethyl)pyrrolidine] | 10 to 30 | > 30 | 0.1 to 1 | > 30
8 | CC1(Oc2ccc(F)cc2)CCN(CCOc2ccccc2)C1 (stereo not drawn) [Example 51, 3-(4-fluorophenoxy)-3-methyl-1-(2-phenoxyethyl)pyrrolidine] | 0.1 to 1 | > 30 | < 0.1 | > 30
9 | CC1(Oc2cccc(F)c2)CCN(CCOc2ccccc2)C1 (stereo not drawn) [Example 52, 3-(3-fluorophenoxy)-3-methyl-1-(2-phenoxyethyl)pyrrolidine] | 1 to 10 | > 30 | < 0.1 | > 30
10 | CC1(Oc2ccccn2)CCN(CCOc2ccccc2)C1 (stereo not drawn) [Example 57, 2-((3-methyl-1-(2-phenoxyethyl)pyrrolidin-3-yl)oxy)pyridine] | 1 to 10 | > 30 | 0.1 to 1 | > 30
11 | CC1(Oc2cccnc2)CCN(CCOc2ccccc2)C1 (stereo not drawn) [Example 58, 3-((3-methyl-1-(2-phenoxyethyl)pyrrolidin-3-yl)oxy)pyridine] | > 30 | > 30 | < 0.1 | 1 to 10
12 | CC1(Oc2cnccn2)CCN(CCOc2ccccc2)C1 (stereo not drawn) [Example 60, 2-((3-methyl-1-(2-phenoxyethyl)pyrrolidin-3-yl)oxy)pyrazine] | > 30 | > 30 | < 0.1 | 0.1 to 1
13 | CC1(Oc2cccc(C(F)(F)F)c2)CCCN(CCOc2cc(F)ccc2F)C1 (stereo not drawn) [Example 62, 1-(2-(2,5-Difluorophenoxy)ethyl)-3-methyl-3-(3-(trifluoromethyl)phenoxy)piperidine] | 1 to 10 | 1 to 10 | > 30 | > 30
14 | CC(CO)N1CCC(C)(Oc2ccccc2)CC1 (stereo not drawn) [Example 81, 2-(4-Methyl-4-phenoxypiperidin-1-yl)propan-1-ol] | 10 to 30 | > 30 | 1 to 10 | > 30
15 | CC1CC(C)(Oc2ccccc2)CC(C)N1CCOc1ccccc1C(F)(F)F (stereo not drawn) [Example 83, 2,4,6-Trimethyl-4-phenoxy-1-(2-(2-(trifluoromethyl)phenoxy)ethyl) piperidine] | 1 to 10 | 0.1 to 1 | > 30 | > 30
16 | COc1ccccc1OC1(C)CCN(CCOc2ccccc2)C1 (stereo not drawn) [Example 84, 3-(2-Methoxyphenoxy)-3-methyl-1-(2-phenoxyethyl)pyrrolidine] | 1 to 10 | > 30 | 1 to 10 | > 30
17 | Cc1ccccc1OC1(C)CCN(CCOc2ccccc2)C1 (stereo not drawn) [Example 85, 3-Methyl-1-(2-phenoxyethyl)-3-(o-tolyloxy)pyrrolidine] | 1 to 10 | > 30 | < 0.1 | > 30

The remaining lines, values ahead:

Row | IC50 (human D2R/β-arrestin [1]) [µM] | IC50 (human D2R/β-arrestin [2]) [µM] | EC50 (human D2R/β-arrestin [3]) [µM] | EC50 (human D2R/β-arrestin [4]) [µM] | Compound
18 | 1 to 10 | 1 to 10 | < 0.1 | > 30 | CC1(Oc2ccccc2C(F)(F)F)CCN(CCOc2ccccc2)C1 (stereo not drawn) [Example 56, 3-Methyl-1-(2-phenoxyethyl)-3-(2-(trifluoromethyl)phenoxy) pyrrolidine]
19 | 1 to 10 | 0.1 to 1 | > 30 | > 30 | CC1(Oc2cccc(C(F)(F)F)c2)CCCN(CCOc2ccccc2F)C1 (stereo not drawn) [Example 61, 1-(2-(2-Fluorophenoxy)ethyl)-3-methyl-3-(3-(trifluoromethyl)phenoxy) piperidine]
20 | 1 to 10 | 1 to 10 | > 30 | > 30 | CC1(Oc2cccc(C(F)(F)F)c2)CCCN(CCOc2ccccc2Cl)C1 (stereo not drawn) [Example 63, 1-(2-(2-Chlorophenoxy)ethyl)-3-methyl-3-(3-(trifluoromethyl)phenoxy) piperidine]
21 | 10 to 30 | > 30 | 0.1 to 1 | > 30 | CC1(Oc2cccc(C(F)(F)F)c2)CCN(CCOc2ccccc2F)C1 (stereo not drawn) [Example 64, 1-(2-(2-fluorophenoxy)ethyl)-3-methyl-3-(3-(trifluoromethyl)phenoxy) pyrrolidine]
22 | 1 to 10 | 0.1 to 1 | > 30 | > 30 | CC1(Oc2cccc(C(F)(F)F)c2)CCN(CCOc2ccccc2Cl)C1 (stereo not drawn) [Example 65, 1-(2-(2-Chlorophenoxy)ethyl)-3-methyl-3-(3-(trifluoromethyl)phenoxy) pyrrolidine]
23 | 1 to 10 | 10 to 30 | < 0.1 | > 30 | CC1(Oc2cccc(C(F)(F)F)c2)CCN(CCOc2cc(F)ccc2F)C1 (stereo not drawn) [Example 66, 1-(2-(2,5-difluorophenoxy)ethyl)-3-methyl-3-(3-(trifluoromethyl)phenoxy)pyrrolidine]
24 | 0.1 to 1 | > 30 | < 0.1 | > 30 | CC1(Oc2ccccc2)CCN(CCOc2cccc(C(F)(F)F)c2)CC1 [Example 67, 4-methyl-4-phenoxy-1-(2-(3-(trifluoromethyl)phenoxy)ethyl)piperidine]
25 | 0.1 to 1 | > 30 | < 0.1 | < 0.1 | Cc1ccccc1OCCN1CCC(C)(Oc2ccccc2)CC1 [Example 69, 4-methyl-4-phenoxy-1-(2-(o-tolyloxy)ethyl)piperidine]
26 | 0.1 to 1 | 10 to 30 | < 0.1 | > 30 | CCc1ccccc1OCCN1CCC(C)(Oc2ccccc2)CC1 [Example 70, 1-(2-(2-Ethylphenoxy)ethyl)-4-methyl-4-phenoxypiperidine]
27 | 0.1 to 1 | 0.1 to 1 | > 30 | > 30 | CC(C)c1ccccc1OCCN1CCC(C)(Oc2ccccc2)CC1 [Example 71, 1-(2-(2-isopropylphenoxy)ethyl)-4-methyl-4-phenoxypiperidine]
28 | 0.1 to 1 | < 0.1 | < 0.1 | > 30 | COc1ccccc1OCCN1CCC(C)(Oc2ccccc2)CC1 [Example 72, 1-(2-(2-Methoxyphenoxy)ethyl)-4-methyl-4-phenoxypiperidine]
29 | 0.1 to 1 | 0.1 to 1 | > 30 | > 30 | CC1(Oc2ccccc2)CCN(CCOc2ccc(F)cc2C(F)(F)F)CC1 [Example 75, 1-(2-(4-Fluoro-2-(trifluoromethyl)phenoxy)ethyl)-4-methyl-4-phenoxy piperidine]
30 | 0.1 to 1 | > 30 | < 0.1 | > 30 | CC1(Oc2ccccc2)CCN(CCOc2cc(F)ccc2C(F)(F)F)CC1 [Example 76, 1-(2-(5-fluoro-2-(trifluoromethyl)phenoxy)ethyl)-4-methyl-4-phenoxypiperidine]
31 | > 30 | > 30 | 10 to 30 | > 30 | CC1(Oc2ccccc2)CCN(CCn2cccc(C(F)(F)F)c2=O)CC1 [Example 77, 1-(2-(4-methyl-4-phenoxypiperidin-1-yl)ethyl)-3-(trifluoromethyl)pyridin-2(1H)-one]
32 | 1 to 10 | 1 to 10 | 10 to 30 | > 30 | CC1(Oc2ccccc2)CCN(C(C)(C)COc2ccccc2C(F)(F)F)CC1 [Example 80, 4-methyl-1-(2-methyl-1-(2-(trifluoromethyl)phenoxy)propan-2-yl)-4-phenoxypiperidine]
33 | > 30 | > 30 | < 0.1 | < 0.1 | CC1(Oc2ccccc2)CCN(CCOc2ccccc2F)CC1 [Example 87, 1-(2-(2-fluorophenoxy)ethyl)-4-methyl-4-phenoxypiperidine]
